According to patent US9969770B2, “Proline compounds as Granzyme B inhibitors” (viDA Therapeutics Inc., priority 2014, dated 2018):

Biological target: GzmB (Homo sapiens, UniProt P10144)
Assay: Inhibition of fibronectin cleavage by GzmB
Assay type: biochemical
Conditions: 20 nM granzyme B, 30° C.; for inhibition at 0.62 µM: 0.62 uM inhibitor, read-out: Percent Inhibition at Inhibitor Concentration 0.62 uM; for inhibition at 5.56 µM: 5.56 uM inhibitor, read-out: Percent Inhibition at Inhibitor Concentration 5.56 uM; for inhibition at 50 µM: 50 uM inhibitor, read-out: Percent Inhibition at Inhibitor Concentration 50 uM
Procedure: Black, 96 well high-binding assay plates (Griener Bio-one) were treated overnight at 4° C. with 40 uL of 8 ug/mL Hilyte Fluor 488 labeled Fibronectin (Cytoskeleton, Inc). After fibronectin coating, plates were washed 3 times in buffer (20 mM Tris-HCl, pH 7.4, 20 mM NaCl) then once with granzyme B assay buffer (50 mM HEPES, pH 7.5, 0.1% CHAPS). After washing, 50 uL of granzyme B assay buffer was added to each fibronectin-coated well. In a separate non-binding 96 well assay plate 5 uL of 20× inhibitor serial dilution stocks were added to 45 uL of 2.22×GzmB mix to establish inhibition (enzyme/inhibitor mixes were all prepared in granzyme B assay buffer and were incubated first at room temperature for 20 minutes, then at 30° C. for another 10 minutes). After incubation, 50 uL of this 2× enzyme/inhibitor mix was added to the corresponding coated well to initiate fibronectin cleavage (20 nM final granzyme B concentration, 8-point inhibitor dilution series starting at 50 uM). The assay was conducted at 30° C. in the TECAN plate reader (TECAN INFINITE® M1000 Pro), which was programmed to monitor the kinetic fluorescence polarization signal (filter set Ex/Em 470 nm/527 nm) with readings taken every minute, for 1 hour. Proteolytic activity was evaluated as the rate of fluorescence enhancement in the parallel emission over the linear range of the reaction. % Inhibition values were calculated from assay controls and the resulting date is shown in Table 6.

Chain of GzmB (P10144 21-247): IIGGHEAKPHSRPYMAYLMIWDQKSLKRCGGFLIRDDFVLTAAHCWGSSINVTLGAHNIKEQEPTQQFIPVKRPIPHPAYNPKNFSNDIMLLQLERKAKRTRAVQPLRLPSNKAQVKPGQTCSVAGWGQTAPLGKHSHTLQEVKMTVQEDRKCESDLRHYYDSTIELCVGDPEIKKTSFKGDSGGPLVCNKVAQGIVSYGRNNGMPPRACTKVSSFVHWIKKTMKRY

| inhibition at 0.62 µM | inhibition at 5.56 µM | inhibition at 50 µM | Compound |
| --- | --- | --- | --- |
| 40% | 76% | 84% | CC[C@H](C)[C@H](NC(=O)Cc1ccccc1)C(=O)NCC(=O)N1C[C@H](C2CCCCC2)C[C@H]1C(=O)NCc1nn[nH]n1 [Compound C2, (2S,4S)—N-((2H-tetrazol-5-yl)methyl)-4-cyclohexyl-1-(2-((2S,3S)-3-methyl-2-(2-phenylacetamido)pentanamido)acetyl)pyrrolidine-2-carboxamide] |
| 35% | 70% | 86% | O=C(O)CCC(=O)N[C@H](C(=O)NCC(=O)N1C[C@H](C2CCCCC2)C[C@H]1C(=O)NCc1nn[nH]n1)C1CCCC1 [Compound C5, 4-(((S)-2-((2-((2S,4S)-2-(((2H-tetrazol-5-yl)methyl)carbamoyl)-4-cyclohexylpyrrolidin-1-yl)-2-oxoethyl)amino)-1-cyclopentyl-2-oxoethyl)amino)-4-oxobutanoic acid] |
| 28% | 58% | 81% | CC[C@H](C)[C@H](NC(=O)CCC(=O)O)C(=O)NCC(=O)N1C[C@H](Sc2ccccc2)C[C@H]1C(=O)NCc1nn[nH]n1 [Compound C13, 4-(((2S,3S)-1-((2-((2S,4R)-2-(((2H-tetrazol-5-yl)methyl)carbamoyl)-4-(phenylthio)pyrrolidin-1-yl)-2-oxoethyl)amino)-3-methyl-1-oxopentan-2-yl)amino)-4-oxobutanoic acid] |
